Results as given in paper PMC4368200, “Triclabendazole Sulfoxide Causes Stage-Dependent Embryolethality in Zebrafish and Mouse In Vitro” (PLoS ONE, 2015).
Read-outs that look alike come from different tables or passages of the source. Marks after values point to notes of the source that are not given here.

What was measured:
[1] = design: method as in PMID 7905812; conditions: rabbits, single 10 mg/kg TCBZ dose; transformed to μM from ref 40; read-out: TCBZSO maximum plasma concentration (Cmax); cited from earlier work
[2] = design: method as in PMID 20128898; conditions: sheep, TCBZ 10 mg/kg; calculated from ref 41; read-out: TCBZSO Cmax; cited from earlier work
[3] = design: method as in PMID 21337234; conditions: cows, 12 mg/kg dose; calculated from ref 39; read-out: TCBZSO Cmax; cited from earlier work
[4] = test system: rat embryos explanted at GD 9.5; experiment: Postimplantation whole embryo culture (postWEC); design: species or system Sprague Dawley rats; key to Yolk sac circulation (median): 1 = few/abnormal vessels, 2 = delayed, 3 = complete vascularization; key to Morphological score: sum of structure scores; higher = more advanced differentiation; conditions: for Crown-rump length / Dysmorphogenic embryos / Morphological score / Somites number / Yolk sac circulation (median): 48 h; for postWEC LOAEC / postWEC NOAEC: GD 9.5-11.5, 48 h; for Teratogenic/dysmorphogenic potency, times lower than ABZ: postimplantation rodent embryos
Protocol: Nulliparous female rats, which were checked to be in the oestrus phase of the oestrous cycle, were housed with adult males (1:1) for 4 h, considering 2 h of light and 2 h of darkness. Mating was confirmed by the presence of sperm in vaginal smear, and the following 24 h were considered as gestational day 0 (GD 0).
Rat embryos were explanted and evaluated as described before with some variations. Briefly, embryos were explanted at GD 9.5 under sterile conditions. Two embryos were incorporated in flasks filled with 3.5 mL of culture medium which contained 20% of rat serum and 80% of serum mixture (Biochrom AG; Berlin, Germany). TCBZ, TCBZSO, ABZ and ABZSO were dissolved in dimethyl sulfoxide (DMSO; Sigma Aldrich Spain) and added to the culture medium to a final DMSO concentration of 0.1%. Culture flasks were oxygenated at the beginning of the culture with a gas mixture containing 12% O2 and after 38 h with a gas mixture containing 50% O2. Embryos were cultured at a temperature of 38°C, under rotation at a speed of 25 rpm (Noria R, Ovan Spain) for 48 h. After this period, embryos presenting yolk sac circulation and heartbeat were considered alive and were selected for further evaluation. The yolk sac circulation was evaluated according to the level of formation of blood vessels, giving a score of 1 in the cases in which few vessels were observed or the vascularization was abnormal, a score of 2 when a delay in vascularization was observed and 3 for complete vascularization, as previously described in [35]. Growth evaluation was assessed by crown-rump length and differentiation was evaluated by counting the number of somites and the morphological score. This score is the sum of the scores given to several embryonic structures depending on their differentiation stage, corresponding higher values with higher stages of differentiation. Furthermore, the percentage of dysmorphogenesis was calculated according to [36].
For the postWEC experiments, the selected concentrations were 140 μM, 278 μM and 556 μM for TCBZ and 267 μM, 666 μM and 932 μM for TCBZSO. The tested concentrations for ABZ analysis were 0.4 μM, 1.1 μM and 1.9 μM and for ABZSO were 3.4 μM, 9 μM, 12 μM, 14 μM and 16 μM.

[5] = design: method as in PMID 3824395; conditions: 200mg/kg dose; cited from earlier work
[6] = Plasma Cmax in humans after therapeutical TCBZ dose (literature); assay type: in vivo; conditions: 10 mg/kg

In the case of `C[S+]([O-])c1nc2cc(Oc3cccc(Cl)c3Cl)c(Cl)cc2[nH]1` (centres unmarked) [TCBZSO, Triclabendazole sulfoxide], the Cmax [1] is given as 33 µM, the Cmax [2] is given as 37.3 µM and the Cmax [3] is given as 71.3 µM. It also gave a Crown-rump length ([4]; 267 μM) of 3.4 ± 0.4 mm, a Dysmorphogenic embryos ([4]; 267 μM) of 0% and a Morphological score ([4]; 267 μM) of 37.9 ± 2.8. The Somites number ([4]; 267 μM) was 26.6 ± 1.6, the “Yolk sac circulation (median)” value ([4]; 267 μM) was 3.0 and the “Frequency of dysmorphogenesis: Branchial bars” value (“Frequency … Branchial bars” for short) ([4]; 666 µM) was 11.1%. For the same compound, the “Frequency of dysmorphogenesis: Head” value ([4]; 666 µM) was 33.3%, the “Frequency of dysmorphogenesis: Optic vesicles” value (“Frequency … Optic vesicles” for short) ([4]; 666 µM) was 33.3% and the “Frequency of dysmorphogenesis: Yolk sac” value ([4]; 666 µM) was 33.3%. For the same compound, the Crown-rump length ([4]; 666 μM) was 3.1 ± 0.7 mm, the Dysmorphogenic embryos ([4]; 666 μM) was 55.6 ^* % and the Morphological score ([4]; 666 μM) was 30.8 ± 7.1. For the same compound, the Somites number ([4]; 666 μM) was 25.1 ± 2.1, the “Yolk sac circulation (median)” value ([4]; 666 μM) was 3.0 ^* and the “Frequency … Branchial bars” value ([4]; 932 µM) was 100%. For the same compound, the “Frequency of dysmorphogenesis: Flexion” value ([4]; 932 µM) was 87.5%, the “Frequency of dysmorphogenesis: Head” value ([4]; 932 µM) was 75% and the “Frequency of dysmorphogenesis: Limbs” value ([4]; 932 µM) was 12.5%. The “Frequency … Optic vesicles” value ([4]; 932 µM) was 62.5%, the “Frequency of dysmorphogenesis: Otic vesicles” value ([4]; 932 µM) was 25% and the “Frequency of dysmorphogenesis: Yolk sac” value ([4]; 932 µM) was 100%. For the same compound, the Crown-rump length ([4]; 932 μM) was 2.3 ± 0.5 mm, the Dysmorphogenic embryos ([4]; 932 μM) was 100 ^* % and the Morphological score ([4]; 932 μM) was 20.3 ± 2.7. For the same compound, the “Yolk sac circulation (median)” value ([4]; 932 μM) was 1.0 ^*, the “postWEC LOAEC” value [4] was 666 µM and the “postWEC NOAEC” value [4] was 267 µM. For the same compound, the “Teratogenic potency, times less potent than parent compound TCBZ” value ([4]; postWEC) was 2.5 times.

For `CSc1nc2cc(Cl)c(Oc3cccc(Cl)c3Cl)cc2[nH]1` [TCBZ, 5-chloro-6-(2,3-dichlorophenoxy)-2-(methylthio)benzimidazole], the Teratogenicity in vivo [5] is listed as “not teratogenic at a 200mg/kg dose [23]”, the “Plasma concentration, times lower than triclabendazole sulfoxide” value [6] is listed as “approximately 30 times” and the Crown-rump length ([4]; 140 μM) is listed as 3.5 ± 0.2 mm. The Dysmorphogenic embryos ([4]; 140 μM) was 0%, the Morphological score ([4]; 140 μM) was 39.0 ± 1.5 and the Somites number ([4]; 140 μM) was 26.9 ± 1.1. For the same compound, the “Yolk sac circulation (median)” value ([4]; 140 μM) was 3.0, the “Frequency … Branchial bars” value ([4]; 278 µM) was 25% and the “Frequency of dysmorphogenesis: Flexion” value ([4]; 278 µM) was 12.5%. For the same compound, the “Frequency of dysmorphogenesis: Head” value ([4]; 278 µM) was 12.5%, the “Frequency of dysmorphogenesis: Otic vesicles” value ([4]; 278 µM) was 12.5% and the “Frequency of dysmorphogenesis: Yolk sac” value ([4]; 278 µM) was 62.5%. For the same compound, the Crown-rump length ([4]; 278 μM) was 3.2 ± 0.5 mm, the Dysmorphogenic embryos ([4]; 278 μM) was 62.5 ^* % and the Morphological score ([4]; 278 μM) was 35.1 ± 5.9. For the same compound, the Somites number ([4]; 278 μM) was 25.7 ± 2.0, the “Yolk sac circulation (median)” value ([4]; 278 μM) was 1.0 ^* and the “Frequency … Branchial bars” value ([4]; 556 µM) was 100%. The “Frequency of dysmorphogenesis: Flexion” value ([4]; 556 µM) was 50%, the “Frequency of dysmorphogenesis: Head” value ([4]; 556 µM) was 75% and the “Frequency of dysmorphogenesis: Heart” value ([4]; 556 µM) was 12.5%. The “Frequency … Optic vesicles” value ([4]; 556 µM) was 37.5%, the “Frequency of dysmorphogenesis: Yolk sac” value ([4]; 556 µM) was 100% and the Crown-rump length ([4]; 556 μM) was 2.6 ± 0.6 mm. For the same compound, the Dysmorphogenic embryos ([4]; 556 μM) was 100%, the Morphological score ([4]; 556 μM) was 21.0 ± 3.0 and the “Yolk sac circulation (median)” value ([4]; 556 μM) was 1.0 ^*. For the same compound, the “postWEC LOAEC” value [4] was 278 µM, the “postWEC NOAEC” value [4] was 140 µM and the “Teratogenic/dysmorphogenic potency, times lower than ABZ” value [4] was “approximately 250 times”. For the same compound, the “Teratogenic/dysmorphogenic potency, times lower than ABZ” value ([4]; listed as Triclabendazole) was 250 times.
